Experiment [1] deals with mice. The experiment can be described thus: Acetic acid induced writhing test (AA writhing test). In kind it is in vivo. The conditions noted are these: 0.8% acetic acid i.p. 30 min later, vs control group. The source says: Specially the results of Marble burying test (MB) in mice as noted in Table 3 show the compounds of the invention are related to the treatment of anxiety. Acetic Acid Induced Writhing Test (AA Writhing Test)
The Acetic acid-induced writhing test is a well-established nociceptive test using a chemical stimulus. Although several animal models of nociceptive tests have been developed to examine and compare the anti-nociceptive effects of different drugs, the anti-nociceptive effects of antidepressants appear to be test-dependent. Indeed, the acetic acid-induced writhing test is more sensitive to antidepressants than other tests using thermal, mechanical or electrical stimuli.
The animals were subcutaneously treated with the test compound with an injection volume of 10 ml/kg. The group treated with 30% PEG400 or saline served as a control group. Thirty minutes later, the mice were intraperitoneally treated with 0.8% (v/v) acetic acid. Each mouse was then placed in a cage for individual observation. The writhing numbers for 10 minutes were counted. The writhe is operationally defined as a contraction of the abdomen followed by stretching of the hind limbs. The potent ability of the compounds was determined as percent value of reduction in the number of writhing comparing to the control group.
(In writhing tests, fewer writhes than in controls are read as antinociception.)

Experiment [2] deals with T1, human serotonin transporter (Homo sapiens, UniProt P31645).
T1 construct: expressed in transfected cells; host or cells: HEK-293
In words: Serotonin transporter reuptake inhibition assay. Type of experiment: cell-based. The following applies: HEK293; 100 nM; HEK-293 cells with human serotonin transporter; [3H]Serotonin uptake; read-out: Inhibition % at 100 nM 5-HT reuptake. As to the method: Serotonin Transporter Reuptake Inhibition Assay
The method to test the ability of compounds to inhibit transporters from reuptake of serotonin followed Gu H. et al., J Biol. Chem., 1994, 269, p […].
The recombinant HEK-293 cells with human serotonin transporter were plated. Test compounds were pre-incubated with cells (2×10^5/ml) in modified Tris-HEPES buffer pH 7.1 for 20 minutes at 25° C. and then they were incubated for additional 10 minutes after 65 nM of [^3H]Serotonin was added. Bound cells were filtered and counted to determine [^3H]Serotonin uptake. Reduction of [^3H]Serotonin uptake by 50 percent or more (≧50%) relative to 10 μM fluoxetine indicates significant inhibitory activity. Compounds were screened at 10, 1, 0.1, 0.01 and 0.001 μM for IC50s.

The test system of experiment [3] is mice. The experiment can be described thus: Forced swimming test in mice (FST). The conditions noted are these: Mus musculus, 0.5 h, 30ip, 30 min after administration, vs control group, read-out: Reduction % at 30ip (duration of immobility). Type of experiment: in vivo. As to the method: Forced Swimming Test in Mice (FST)
The Forced swimming test is an animal model based on the rodent's behavioral repertoire for screening drugs with potential antidepressant activity. As in several other models used for this goal, an uncontrollable stress stimulus produces behavioral changes that are sensitive to antidepressant treatment.
The mice were intraperitoneally treated with the test compound with an injection volume of […]. The group treated with 30% PEG400 served as a control group. Thirty minutes following administration, mice were individually forced to swim in a transparent glass vessel (14 cm high, 11.5 cm in diameter) filled with 10 cm of water at 25° C. The total duration of immobility (second) was measured during the last 4 minutes of a single 6-min test session. Mice were considered immobile when they made no further attempts to escape other than the movements necessary to keep their heads above the water. The potent ability of the compounds was determined as percent value of reduction in the duration of immobility comparing to the control group.

Experiment [4] concerns the target T2, human recombinant dopamine transporter (Homo sapiens, UniProt Q01959).
T2 construct: expressed in transfected cells; host or cells: CHO-K1
The experiment can be described thus: Dopamine transporter reuptake inhibition assay. The conditions noted are these: 100 nM; CHO-K1 cells with human dopamine transporter; [3H]Dopamine uptake; read-out: Inhibition % at 100 nM DA reuptake. Type of experiment: cell-based. On the procedure:
Dopamine Transporter Reuptake Inhibition Assay
The assay followed the method modified from Pristupa Z. B. et al., Mol. Pharmacol., 1994, p 125˜135.
CHO-K1 cells with human recombinant dopamine transporter were plated. Test compounds were pre-incubated with cells (4×10^5/ml) in modified Tris-HEPES buffer pH 7.1 for 20 minutes at 25° C. and then they were incubated for additional 10 minutes after 50 nM of [^3H]Dopamine was added. A lysate is obtained from solubilized cells and counted to determine [^3H]Dopamine uptake. Reduction of [^3H]Dopamine uptake by 50 percent or more (≧50%) relative to 10 μM nomifensine indicates significant inhibitory activity. Compounds were tested at 10, 1, 0.1, 0.01 and 0.001 μM for IC50s.

Experiment [5] concerns the target T3, human recombinant norepinephrine transporter (Homo sapiens, UniProt P23975).
T3 construct: expressed in transfected cells; host or cells: MDCK
The experiment can be described thus: Norepinephrine transporter reuptake inhibition assay. In kind it is cell-based. The conditions noted are these: 100 nM; MDCK cells with human norepinephrine transporter; [3H]Norepinephrine uptake; read-out: Inhibition % at 100 nM NE reuptake. On the procedure:
Norepinephrine Transporter Reuptake Inhibition Assay
Norepinephrine transporter reuptake inhibition assay used the method described by Galli A. et al., J Exp Biol., 1995, 198, p 2197˜2212.
MDCK cells with stably expressed human recombinant norepinephrine transporter were plated one day. Test compounds were pre-incubated with cells (2×10^5/ml) in modified Tris-HEPES buffer pH 7.1 for 20 minutes at 25° C. and then they were incubated for additional 10 minutes after 25 nM of [^3H]Norepinephrine was added. A lysate was obtained from solubilized cells and the filtered lysate was counted to determine [^3H]Norepinephrine uptake. Reduction of [^3H]Norepinephrine uptake by 50 percent or more (≧50%) relative to 10 μM desipramine indicates significant inhibitory activity. Compounds were screened at 10, 1, 0.1, 0.01 and 0.001 μM to determine their IC50s.

In experiment [6] the test system is mice. The experiment can be described thus: Marble burying test. Type of experiment: in vivo. The following applies: 10ip, 30 min after treatment, vs control group. The text has this:
The Marble burying test is a screening tool for putative anxiolytics. In this test, control mice naturally bury glass marbles in the cage bedding and the administration of anxiolytic compounds, including Diazepam, reduces the number of buried marbles. Positive compounds in the marble burying test including selective serotonin reuptake inhibitor may be especially beneficial to obsessive-compulsive disorder.
A group of mice was intraperitoneally treated with test compound dissolved in 30% PEG400 with an injection volume of 10 ml/kg. The group treated with only 30% PEG400 served as a control group. Thirty minutes after the treatment, the animals were individually placed in a polycarbonate cage which was same as used for animal housing with an open top located within a quiet room. Each cage consisted of ⅛ inch corn bedding 5 cm deep. Twenty four clean glass marbles (15 mm diameter) were evenly spaced in four rows of six on top of the bedding. Each mouse was left in the cage for 30 minutes and the number of marbles buried (buried more than ½ or ⅔) was counted. The potent ability of the compounds was determined as percent value of reduction in the number of marbles buried comparing to the control group.

T1 sequence (P31645 whole entry): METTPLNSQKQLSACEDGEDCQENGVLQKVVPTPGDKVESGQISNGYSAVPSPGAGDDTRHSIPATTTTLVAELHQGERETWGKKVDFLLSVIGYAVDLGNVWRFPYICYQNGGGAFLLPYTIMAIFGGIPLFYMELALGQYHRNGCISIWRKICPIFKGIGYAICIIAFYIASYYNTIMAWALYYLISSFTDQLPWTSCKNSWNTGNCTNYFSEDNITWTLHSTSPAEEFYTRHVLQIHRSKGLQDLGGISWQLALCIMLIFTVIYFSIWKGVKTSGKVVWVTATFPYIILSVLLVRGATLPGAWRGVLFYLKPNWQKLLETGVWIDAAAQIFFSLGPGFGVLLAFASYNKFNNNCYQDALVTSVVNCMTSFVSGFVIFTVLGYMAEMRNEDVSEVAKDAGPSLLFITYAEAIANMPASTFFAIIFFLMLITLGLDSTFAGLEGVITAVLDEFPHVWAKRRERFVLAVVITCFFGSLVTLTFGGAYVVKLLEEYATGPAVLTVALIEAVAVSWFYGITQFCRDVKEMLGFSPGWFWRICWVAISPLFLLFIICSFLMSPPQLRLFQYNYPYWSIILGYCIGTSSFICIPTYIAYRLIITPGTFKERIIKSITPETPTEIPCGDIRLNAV
T2 sequence (Q01959 whole entry): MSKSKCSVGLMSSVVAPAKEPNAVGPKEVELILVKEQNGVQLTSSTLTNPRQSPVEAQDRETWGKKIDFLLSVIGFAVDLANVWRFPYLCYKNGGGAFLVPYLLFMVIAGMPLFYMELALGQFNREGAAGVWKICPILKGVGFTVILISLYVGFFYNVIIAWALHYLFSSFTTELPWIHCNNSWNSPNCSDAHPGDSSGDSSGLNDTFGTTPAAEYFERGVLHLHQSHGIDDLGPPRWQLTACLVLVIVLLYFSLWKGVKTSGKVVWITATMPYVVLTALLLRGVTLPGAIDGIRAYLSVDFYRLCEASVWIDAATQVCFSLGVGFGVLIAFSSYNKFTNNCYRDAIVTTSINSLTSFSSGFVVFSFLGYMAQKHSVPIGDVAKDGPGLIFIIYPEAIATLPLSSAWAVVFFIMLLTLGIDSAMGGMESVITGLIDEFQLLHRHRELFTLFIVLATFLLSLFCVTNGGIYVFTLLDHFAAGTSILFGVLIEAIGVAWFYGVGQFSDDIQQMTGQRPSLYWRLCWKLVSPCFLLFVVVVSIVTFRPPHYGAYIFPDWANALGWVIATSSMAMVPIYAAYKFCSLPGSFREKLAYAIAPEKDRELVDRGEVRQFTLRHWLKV
T3 sequence (P23975 whole entry): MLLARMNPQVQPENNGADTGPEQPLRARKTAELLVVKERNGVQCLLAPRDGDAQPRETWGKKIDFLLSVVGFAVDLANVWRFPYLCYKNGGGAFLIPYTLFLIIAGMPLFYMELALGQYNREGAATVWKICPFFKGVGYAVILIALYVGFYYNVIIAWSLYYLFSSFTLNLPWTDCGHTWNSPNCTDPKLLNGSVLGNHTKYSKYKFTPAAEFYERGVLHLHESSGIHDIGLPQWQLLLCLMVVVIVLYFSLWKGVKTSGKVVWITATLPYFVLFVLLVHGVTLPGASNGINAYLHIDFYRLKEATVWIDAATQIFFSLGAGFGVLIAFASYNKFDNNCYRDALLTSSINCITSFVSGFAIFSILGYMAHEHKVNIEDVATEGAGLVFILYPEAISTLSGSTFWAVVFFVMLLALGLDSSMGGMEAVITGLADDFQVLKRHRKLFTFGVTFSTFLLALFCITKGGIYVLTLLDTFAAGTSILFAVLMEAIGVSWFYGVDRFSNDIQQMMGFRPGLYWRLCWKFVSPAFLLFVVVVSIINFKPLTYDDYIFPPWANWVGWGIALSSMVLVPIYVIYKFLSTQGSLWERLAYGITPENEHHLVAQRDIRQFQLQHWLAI

One may read the inhibition as the drop in the measured response relative to a control, in per cent. On to `c1ccc2cc([C@@H]([C@@H]3CCCNC3)n3ncnn3)ccc2c1` [Example 1, (3R)-3-[(R)-naphthalen-2-yl(2H-tetrazol-2-yl)methyl]piperidine], for which the “Reduction % at 30sc (number of writhing)” value in the experiment on mice [1] is 70.8%. Besides, the inhibition at 0.1 µM in experiment [2] was 81%; in experiment [4] it was 88%; in experiment [5], 94%. Also, the inhibition in vivo at 30 mg/kg with mice [3] was found to be 56.3%. Further, the “Reduction % (number of marbles buried) at 10ip” value in the experiment on mice [6] is given as 57.5% (at 10ip).
As for `Cc1nnn([C@H](c2ccc3ccccc3c2)[C@H]2CCCNC2)n1` [Example 10, (3S)-3-[(S)-(5-methyl-2H-tetrazol-2-yl)(naphthalen-2-yl)methyl]piperidine], the values for the inhibition at 0.1 µM in experiment [2], in experiment [4] and in experiment [5] were 93%, 93% and 87%, respectively.
In the case of `c1ccc2cc([C@@H]([C@@H]3CCCNC3)n3nccn3)ccc2c1` [Example 13, (3R)-3-[(R)-naphthalen-2-yl(2H-1,2,3-triazol-2-yl)methyl]piperidine], the “Reduction % at 30sc (number of writhing)” value in the experiment with mice [1] is recorded as 71.8%. Moreover, the inhibition at 0.1 µM was 84% in experiment [2], 63% in experiment [4] and 87% in experiment [5]. Besides, in the experiment with mice [3], the inhibition in vivo at 30 mg/kg stood at 9.4%.
Consider `c1ccc2cc([C@H]([C@H]3CCCNC3)n3nccn3)ccc2c1` [Example 14, (3S)-3-[(S)-naphthalen-2-yl(2H-1,2,3-triazol-2-yl)methyl]piperidine], for which the inhibition at 0.1 µM in experiment [2] came out at 76%; in experiment [4], 52%; in experiment [5] it was 70%. Further, the inhibition in vivo at 30 mg/kg in the experiment on mice [3] worked out at 6.4%.
The corresponding values for `COc1ccc2cc([C@H]([C@H]3CCCNC3)n3ncnn3)ccc2c1` [Example 35, (3S)-3-[(S)-(6-methoxynaphthalen-2-yl)(2H-tetrazol-2-yl)methyl]piperidine] are 76%, 78%, 72% and 32.7%.
As to `Clc1ccc2cc([C@@H]([C@@H]3CCCNC3)n3ncnn3)ccc2c1` [Example 67, (3R)-3-[(R)-(6-chloronaphthalen-2-yl)(2H-tetrazol-2-yl)methyl]piperidine], the inhibition at 0.1 µM in experiment [2] worked out at 97%; in experiment [4], 81%; in experiment [5], 90%. Besides, the inhibition in vivo at 30 mg/kg in the experiment with mice [3] stood at 2.4%.
Take `Clc1ccc2cc([C@H]([C@H]3CCCNC3)n3ncnn3)ccc2c1` [Example 68, (3S)-3-[(S)-(6-chloronaphthalen-2-yl)(2H-tetrazol-2-yl)methyl]piperidine]: in the experiment with mice [1], the “Reduction % (number of writhing) at 10sc” value is 48.1% (at 10sc). Besides, the inhibition at 0.1 µM in experiment [2] was 96%; in experiment [4] it was 63%; in experiment [5], 57%. For the same compound, in the experiment with mice [3], the inhibition in vivo at 30 mg/kg was 7.1%.
As for `Clc1ccc2cc([C@@H]([C@H]3CCCNC3)n3ncnn3)ccc2c1` [Example 70, (3S)-3-[(R)-(6-chloronaphthalen-2-yl)(2H-tetrazol-2-yl)methyl]piperidine], the inhibition at 0.1 µM in experiment [2] stood at 95%; in experiment [4] it was 3%; in experiment [5], 14%.
Consider `Fc1ccc2cc([C@@H]([C@H]3CCCNC3)n3ncnn3)ccc2c1` [Example 72, (3S)-3-[(R)-(6-fluoronaphthalen-2-yl)(2H-tetrazol-2-yl)methyl]piperidine], for which the inhibition at 0.1 µM amounted to 86% in experiment [2], 2% in experiment [4] and 6% in experiment [5]. Moreover, the inhibition in vivo at 30 mg/kg in the experiment on mice [3] is 46.7%.
`c1ccc(-c2nnn([C@H](c3ccc4ccccc4c3)[C@H]3CCCNC3)n2)cc1` [Example 75, (3S)-3-[(S)-naphthalen-2-yl-(5-phenyl-tetrazol-2-yl)methyl]piperidine]: the figures for the inhibition at 0.1 µM in experiment [2], in experiment [4] and in experiment [5] were 86%, 41% and -1%, respectively.
The corresponding values for `c1ccc2cc([C@H]([C@H]3CCCNC3)n3nc4ccccc4n3)ccc2c1` [Example 80, 2-{(S)-naphthalen-2-yl[(3S)-piperidin-3-yl]methyl}-2H-benzotriazole] are 59%, 84% and 55%.
Turning to `Fc1ccc2cc([C@H]([C@@H]3CCCNC3)n3ncnn3)ccc2c1` [Example 84, (3R)-3-[(S)-(6-fluoronaphthalen-2-yl)(2H-tetrazol-2-yl)methyl]piperidine], the inhibition at 0.1 µM is 44% in experiment [2], -4% in experiment [4] and 5% in experiment [5].
As to `Cc1ccc2cc([C@H]([C@H]3CCCNC3)n3ncnn3)ccc2c1` [Example 85, (3S)-3-[(S)-(6-methylnaphthalen-2-yl)(2H-tetrazol-2-yl)methyl]piperidine], the “Reduction % (number of writhing) at 10sc” value in the experiment with mice [1] is 46.4% (at 10sc). In addition, the inhibition at 0.1 µM in experiment [2] was determined as 94%; in experiment [4], 81%; in experiment [5], 74%. Moreover, in the experiment on mice [3], the inhibition in vivo at 30 mg/kg stood at 11.3%.
Consider `Cc1ccc2cc([C@@H]([C@H]3CCCNC3)n3ncnn3)ccc2c1` [Example 86, (3S)-3-[(R)-(6-methylnaphthalen-2-yl)(2H-tetrazol-2-yl)methyl]piperidine], for which the values for the inhibition at 0.1 µM in experiment [2], in experiment [4] and in experiment [5] were 93%, 35% and -1%, respectively. Besides, in the experiment on mice [3], the inhibition in vivo at 30 mg/kg was 13.4%.
Take `c1ccc2cc([C@H]([C@H]3CCCNC3)n3cncn3)ccc2c1` [Example 90, (3S)-3-[(S)-naphthalen-2-yl(1H-1,2,4-triazol-1-yl)methyl]piperidine]: the inhibition at 0.1 µM in experiment [2] worked out at 87%; in experiment [4], 44%; in experiment [5] it was 39%.
